# From patent US11530244B2, “Cyclic polypeptides for PCSK9 inhibition” (priority 2018, dated 2022)
# Like-named read-outs stand apart in the source and are kept apart here. Starred links: 1 amine or outer side, 2 acyl side, 3 side chain; linkers in the order of their positions; H or OH if unused. Positions of bridges follow the written chain, without caps; N, C: chain ends. Non-standard residues stand in square brackets, D forms with d. Residues, ends and D or L forms follow the SMILES beside them. Phe(4-COOH) = N[C@@H](Cc1ccc(C(=O)O)cc1)C(=O)O; Trp(5-F) = N[C@@H](Cc1c[nH]c2ccc(F)cc12)C(=O)O; Trp(6-F) = N[C@@H](Cc1c[nH]c2cc(F)ccc12)C(=O)O; NMeW = CN[C@@H](Cc1c[nH]c2ccccc12)C(=O)O; Dip = N[C@H](C(=O)O)C(c1ccccc1)c1ccccc1; X36 = O=C([C@H](CC1=NC=NC1)N[*:1])[*:2]; X4 = O=C(CCSCc1cccc(CSCCN[*:1])c1)[*:2]; mXylylene = c1cc(C[*:1])cc(C[*:2])c1; AEF = NCCOc1ccc(C[C@H](N)C(=O)O)cc1; NMeY = CN[C@@H](Cc1ccc(O)cc1)C(=O)O; αMeP = C[C@@]1(C(=O)O)CCCN1; Ac3c = NC1(C(=O)O)CC1; Ahx = NCCCCCC(=O)O; Mpa = O=C(O)CCS
# Experiments:
# [1] = target: human PCSK9 / human LDLR EGFa domain interaction (Homo sapiens (Human), UniProt Q8NBP7); assay: TR-FRET assay of inhibition of the PCSK9-LDLR protein-protein interaction; format: binding
# Summary of the method: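 Half-maximal inhibitory concentrations came from 4-parameter fits of dose-response data. Proteins: biotinylated PCSK9, His-tagged LDLR EGFa, 20 nM each; labels 5 nM; 2 h, room temperature; buffer 50 mM HEPES, 150 mM NaCl, 5 mM CaCl2.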
# PCSK9 = PCSK9 (Homo sapiens (Human), UniProt Q8NBP7); assay: PCSK9 Alexa FRET Standard assay (displacement of AlexaFluor647 tagged cyclic peptide Reagent A); format: binding
# Summary of the method: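 TR-FRET displacement: 0.5 nM biotinylated PCSK9 with 1.25 nM Strep-Eu and 20 nM AlexaFluor-tagged cyclic peptide (final) in 50 mM HEPES pH 7.4, 0.15 M NaCl, 5 mM CaCl2, 0.01% BSA, 0.01% P20, ≥2 h at room temperature. IC50 from sigmoidal fit, converted to Ki via peptide KD; falling Eu counts flagged false positives.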
# [2] = TR-FRET, 20 nM human PCSK9, 20 nM human LDLR EGFa domain, 2 hours room temperature, read-out: IC50
# [3] = PCSK9 Alexa FRET Standard assay, 0.5 nM PCSK9, 20 nM AF cyclic peptide Reagent A, read-out: IC50
# human PCSK9 / human LDLR EGFa domain interaction, sequence (Q8NBP7 153-692): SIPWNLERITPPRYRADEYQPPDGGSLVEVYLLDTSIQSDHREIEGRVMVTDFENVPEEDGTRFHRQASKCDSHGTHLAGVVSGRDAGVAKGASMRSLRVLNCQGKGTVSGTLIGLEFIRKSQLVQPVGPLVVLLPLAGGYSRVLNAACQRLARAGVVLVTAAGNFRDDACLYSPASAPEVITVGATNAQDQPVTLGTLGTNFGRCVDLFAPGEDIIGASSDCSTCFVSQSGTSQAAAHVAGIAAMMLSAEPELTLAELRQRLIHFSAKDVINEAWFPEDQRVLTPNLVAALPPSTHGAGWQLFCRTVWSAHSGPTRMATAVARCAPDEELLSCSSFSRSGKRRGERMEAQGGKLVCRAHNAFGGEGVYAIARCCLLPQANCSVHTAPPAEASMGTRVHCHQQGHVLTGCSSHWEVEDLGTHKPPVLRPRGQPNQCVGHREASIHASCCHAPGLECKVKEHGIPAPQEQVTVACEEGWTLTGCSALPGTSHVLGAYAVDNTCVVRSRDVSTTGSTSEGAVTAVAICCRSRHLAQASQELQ
# human PCSK9 / human LDLR EGFa domain interaction, sequence (Q8NBP7 31-152 partner): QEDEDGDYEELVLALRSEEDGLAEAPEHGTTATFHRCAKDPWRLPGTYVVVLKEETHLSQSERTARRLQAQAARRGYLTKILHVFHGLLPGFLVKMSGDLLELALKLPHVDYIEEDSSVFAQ
# PCSK9, sequence (Q8NBP7 153-692): as the sequence (Q8NBP7 153-692) above
SMILES,"IC50 [1, 2] [nM]",IC50 (PCSK9; [3]) [nM],IC50 [1] [nM],IC50 (PCSK9; IC50) [nM]
CC(=O)N[C@@H]1CCCCNC(=O)c2ccc(cc2)C[C@@H](C(N)=O)NC(=O)[C@]2(C)CCCN2C(=O)[C@H](Cc2ccc(O)cc2)NC(=O)[C@H](Cc2cnc[nH]2)NC(=O)[C@H](CC(=O)O)NC(=O)[C@H](Cc2c[nH]c3ccc(F)cc23)NC(=O)[C@H](Cc2c[nH]c3ccc(F)cc23)NC(=O)CNC1=O [Compound 255] (Ac-[dK]G[Trp(5-F)][Trp(5-F)]DHY[αMeP][Phe(4-COOH)]-NH2; lactam 1-9),100 to 1000,100 to 1000,–,–
C[C@H]1NC(=O)[C@H](CCCCN)NC(=O)CCSCc2cccc(c2)CSCCNC(=O)[C@]2(C)CCCN2C(=O)[C@H](Cc2ccc(O)cc2)N(C)C(=O)[C@H](Cc2c[nH]cn2)NC(=O)[C@H](CC(=O)O)NC(=O)[C@H](Cc2c[nH]c3ccc(F)cc23)NC(=O)[C@H](Cc2c[nH]c3ccccc23)N(C)C1=O [Compound 276] (cyclo(DH[NMeY][αMeP][X4]K[dA][NMeW][Trp(5-F)])),–,–,0.1 to 100,100 to 1000
C[C@@]12CCCN1C(=O)[C@H](Cc1ccc(O)cc1)NC(=O)[C@H](Cc1c[nH]cn1)NC(=O)[C@H](CC(=O)O)NC(=O)[C@H](Cc1c[nH]c3ccc(F)cc13)NC(=O)[C@H](Cc1c[nH]c3ccc(F)cc13)NC(=O)CNC(=O)C1(CC1)NC(=O)CCSCc1cccc(c1)CSC[C@@H](C(N)=O)NC2=O [Compound 281] ([Mpa][Ac3c]G[Trp(5-F)][Trp(5-F)]DHY[αMeP]C-NH2; linker 1-10 via mXylylene),0.1 to 100,100 to 1000,–,–
CC(=O)N[C@H]1CCC(=O)NCCOc2ccc(cc2)C[C@@H](C(N)=O)NC(=O)[C@]2(C)CCCN2C(=O)[C@H](Cc2ccc(O)cc2)NC(=O)[C@H](Cc2c[nH]cn2)NC(=O)[C@H](CC(=O)O)NC(=O)[C@H](Cc2c[nH]c3ccc(F)cc23)NC(=O)[C@H](Cc2c[nH]c3ccc(F)cc23)NC(=O)CNC(=O)[C@H](C)NC1=O [Compound 311] (Ac-EAG[Trp(5-F)][Trp(5-F)]DHY[αMeP][AEF]-NH2; lactam 1-10),100 to 1000,1000 to 12100,–,–
C[C@@]12CCCN1C(=O)[C@H](Cc1ccc(O)cc1)NC(=O)[C@H](Cc1cnc[nH]1)NC(=O)[C@H](CC(=O)O)NC(=O)[C@H](Cc1c[nH]c3cc(F)ccc13)NC(=O)[C@H](Cc1c[nH]c3ccc(F)cc13)NC(=O)CNC(=O)CCCCCNC(=O)c1ccc(cc1)C[C@@H](C(N)=O)NC2=O [Compound 313] ([Ahx]G[Trp(5-F)][Trp(6-F)]DHY[αMeP][Phe(4-COOH)]-NH2; lactam N-9),1000 to 12100,1000 to 12100,–,–

# Continued, in another order:
"IC50 [1, 2] [nM]",IC50 (PCSK9; [3]) [nM],SMILES,IC50 [1] [nM],IC50 (PCSK9; IC50) [nM]
100 to 1000,100 to 1000,NCCCC[C@@H]1NC(=O)CCSCc2cccc(c2)CSC[C@@H](C(N)=O)NC(=O)[C@@H]2CCCN2C(=O)[C@H](Cc2ccc(OCCN)cc2)NC(=O)[C@H](Cc2c[nH]cn2)NC(=O)[C@H](CC(=O)O)NC(=O)[C@H](Cc2c[nH]c3ccc(F)cc23)NC(=O)[C@H](Cc2c[nH]c3ccc(F)cc23)NC(=O)CNC1=O [Compound 265] ([Mpa]KG[Trp(5-F)][Trp(5-F)]DH[AEF]PC-NH2; linker 1-10 via mXylylene),–,–
0.1 to 100,0.11 to 100,COc1ccc(C[C@@H]2NC(=O)[C@H](CC3=NC=NC3)NC(=O)[C@H](CC(=O)O)NC(=O)[C@H](Cc3c[nH]c4ccc(F)cc34)NC(=O)[C@H](C(c3ccccc3)c3ccccc3)NC(=O)[C@@H](C)NC(=O)[C@H](CCCCN)NC(=O)CCSCc3cccc(c3)CSCCNC(=O)[C@]3(C)CCCN3C2=O)cc1 [Compound 275] (cyclo(D[X36]Y(Me)[αMeP][X4]K[dA][Dip][Trp(5-F)])),–,–
1000 to 12100,1000 to 12100,CC(=O)N[C@H]1CC(=O)NCCOc2ccc(cc2)C[C@@H](C(N)=O)NC(=O)[C@]2(C)CCCN2C(=O)[C@H](Cc2ccc(O)cc2)NC(=O)[C@H](Cc2c[nH]cn2)NC(=O)[C@H](CC(=O)O)NC(=O)[C@H](Cc2c[nH]c3ccc(F)cc23)NC(=O)[C@H](Cc2c[nH]c3ccc(F)cc23)NC(=O)CNC(=O)[C@H](C)NC1=O [Compound 310] (Ac-DAG[Trp(5-F)][Trp(5-F)]DHY[αMeP][AEF]-NH2; lactam 1-10),–,–
100 to 1000,1000 to 12100,CC(=O)N[C@H]1CCCCNC(=O)c2ccc(cc2)C[C@@H](C(N)=O)NC(=O)[C@]2(C)CCCN2C(=O)[C@H](Cc2ccc(O)cc2)NC(=O)[C@H](Cc2cnc[nH]2)NC(=O)[C@H](CC(=O)O)NC(=O)[C@H](Cc2c[nH]c3cc(F)ccc23)NC(=O)[C@H](Cc2c[nH]c3ccc(F)cc23)NC(=O)CNC(=O)[C@H](C)NC1=O [Compound 312] (Ac-KAG[Trp(5-F)][Trp(6-F)]DHY[αMeP][Phe(4-COOH)]-NH2; lactam 1-10),–,–
